# Measured values reported in patent publication US8383168B2, “Antioxidant complex, cosmetic and pharmaceutical compositions containing said complex and use of said complex” (Natura Cosmeticos S.A., priority 2008, dated 2013).
# Assays:
# Assay type in all cases: biochemical
# [1] = ORAC hydrophilic and lipophylic method; conditions: value printed for comparison with the samples
# Procedure: The system comprises a generating substance of free radical, the AAPH (2,2′-azobis (2-amidinopropane)dihydrochloride) and a fluorescent marker, fluorescein. The antioxidant substance presence in the reaction medium inhibits the decline of the induced fluorescence by the free radical.
# The final value is calculated by the regression equation between the sample concentration and the area under the decline curve of fluorescence (AUC). Being expressed the result in micromoles equivalent of Trolox®/g of the sample. AUC=1+f1/f0+f2/f0++f3/f0+ . . . +fn/f0 • f0: initial fluorescence t=0 minutes • fn: fluorescence in each sample in t=n minutes
# Hexane (1 mg/mL) was added in the individual samples, the samples were agitated during 3 minutes in vortex and centrifuged during two minutes in 700 g. The supernatant was removed, evaporated under nitrogen flow and analyzed as lipophylic portion. The soil body was analyzed as hydrophilic fraction.
# The latter was solubilized in acetone:water (50% v/v), mixed in the ratio indicated for each one of the mixtures and appropriately diluted in 75 nM phosphate buffer pH 7.0. […] The reading was made each minute for one hour with wave length of excitement 485/20 nm and emission 528/20 nm (reading of plates—Multi Detection microplate reader SynergyBIOTEK). […]
# [2] = DPPH free radical neutralization; conditions: amount required to neutralize 50% of DPPH radicals
# Source text: This methodology is used to assess the IC-50 value, i.e., the amount of active ingredient required to neutralize 50% of the radicals formed in the reaction medium.
# This assay is used to assess the active ingredient's ability to decrease the formation of free radicals. A specific radical (DPPH) produces a purple coloring in ethanolic solution. Antioxidant active ingredients capable of donating protons (H^+) decrease the formation of radicals, consequently decreasing the purple coloring.
# [3] = Lipoperoxidation (liposomes + AAPH, xylenol orange); conditions: for protection against lipoperoxidation: active ingredient alone, 100 μg/ml (0.01%), 3 hours of reaction
# Source text: The methodologies selected for planning and carrying out the tests for the antioxidant efficacy of the complex of the present invention aimed at reproducing the protective effect of membranes (lipids), DNA and proteins, and were fast screening methodologies, such as: • DPPH: the test is based on the reduction reaction of the diphenyl picryl hydrazyl (DPPH) free radical in ethanolic medium, with the raw materials or substances to be analyzed, wherein the DPPH radical is reduced by said substances, altering the tone and enabling the antioxidant protection to be measured. This is a simple assay, commonly used for screening substances, since it measures one of the main mechanisms of antioxidant action—proton donation for stabilization of the DPPH radical. • Lipoperoxidation: in this test, phosphatidylcholine liposomes, which structure resembles the cell membrane since phosphatidylcholine is one of the lipid components of cell membranes, are incubated with the AAPH radical, which is capable of promoting the oxidation of these membranes, forming lipid hydroperoxides. These hydroperoxides promote the oxidation of Fe^2+ to Fe^3+, which reacts with xylenol orange, forming a yellowish compound. The active ingredients incubated with the liposomes decrease the membrane oxidation, consequently decreasing the reaction with xylenol orange and the formation of color. This test provides a result for the % protection against lipoperoxidation, and is closer to the physiological situation, since it mimics the attack to cell membranes. • Protein Oxidation: this experiment uses BSA (bovine serum albumine) as a substrate and a hydroxyl radical generating system (Fenton reaction: H2O2+ iron), which can generate hydroperoxides in the presence of the protein, due to the oxidation of the amino acid side chain. These hydroperoxides promote the oxidation of Fe2+ to Fe3+, which reacts with xylenol orange, forming a yellowish compound. […]
Compound,antioxidant activity of comparator [1] [µmol/g],IC-50 (mg/ml) [2] [mg/mL],IC-50 (μg/ml) [2] [µg/mL],protection against lipoperoxidation [3] [%],"concentration of the active ingredient in isolation required for protection similar to the mixture, relative to its concentration in the mixture ([3]; lipoperoxidation, between 60 and 70% protection, mixture 10+10+10 μg/ml)"
Cc1c(C)c2c(c(C)c1O)CCC(C)(C(=O)O)O2 (centres unmarked) [Trolox®],400,–,–,–,–
"Cc1c(C)c2c(c(C)c1O)CC[C@@](C)(CCC[C@H](C)CCC[C@H](C)CCCC(C)C)O2 [Tocopherol, alpha-tocopherol]",–,0.019,19,95.53,at least 5 times higher
CC(C)=CCC/C(C)=C/C=C/C(C)=C/C=C/C(C)=C/C=C/C=C(C)/C=C/C=C(C)/C=C/C=C(\C)CCC=C(C)C [Lycopene],–,0.208,208,25.30,–
